Results from patent publication US20120143074A1, “METHOD OF EVALUATING SUITABILITY FOR DRUG THERAPY FOR THE PREVENTION AND TREATMENT OF ANXIETY DISORDERS USING CHOLINERGIC TYPE II THETA RHYTHM” (priority 2009, published 2012).

What was measured:
[1] = tested on: PLC-β4^−/− mice; experiment: Elevated plus-maze after rivastigmine; type: in vivo; settings: 0.5 mg/kg i.p., 60 min before test
Experimental: The elevated plus-maze consists of two open and two enclosed arms of the same size (45^┘ 5 cm) with walls 15 cm high. The arms, constructed of black acrylic, radiate from a central platform (5^┘ 5 cm) to form a plus sign. The entire apparatus was elevated to a height of 30 cm above floor level. Each mouse was placed in the central platform facing one of the open arms. The number of entries into the open and closed arms and the time spent on the open and closed arms were recorded during a 5 min test period (Parks, C. L. et al., Proc. Natl. Acad. Sci. USA 95, 10734-10739; 1998; Ramboz, S. et al., Proc. Natl. Acad. Sci. USA 95, 14476-14481, 1998; Gross, C. et al., Nature 416, 396-400, 2002).
(§1) rivastigmine (Novartis Pharma, Basel, Switzerland), which is a cholinergic enhancer, was dissolved in saline. Animals were injected intraperitoneally (i.p.) with 0.5 mg/kg rivastigmine 60 min before the start of anxiety behavioral test (total volume, 5 ml/kg). […]

[2] = tested on: PLC-β4^−/− mice; experiment: Three anxiety behavioral assays after rivastigmine (overall); type: in vivo; settings: 0.5 mg/kg i.p., 60 min after injection
Experimental: (§2) rivastigmine (Novartis Pharma, Basel, Switzerland), which is a cholinergic enhancer, was dissolved in saline. Animals were injected intraperitoneally (i.p.) with 0.5 mg/kg rivastigmine 60 min before the start of anxiety behavioral test (total volume, 5 ml/kg). […] Both PLC-β4^+/+(WT) and PLC-β4^−/−(KO) mice were randomly assigned to one of the following treatment groups: (1) WT-sham (wild-type mice with intraperitoneal injection of saline; n=10), (2) KO-sham (PLC-β4^−/− mice with intraperitoneal injection of saline; n=10), and (3) KO-rivastigmine (PLC-β4^−/− mice with intraperitoneal injection of rivastigmine; n=10). rivastigmine is a second-generation carbamate-based reversible non-competitive AChE and butyrylChE (BuChE) inhibitor. The reason for choosing the inhibitor is that an inhibitory effect sustains for a long period of time, the inhibitor is specific to the brain (Enz, A. et al., Prog. Brain Res. 98, 431-438, 1993), and the inhibitor selectively increases cholin activity in hippocampus and cortex (Weinstock, M., et al., J. Neural Transm. Suppl. 43, 219-225, 1994).
(§3) Whether rivastigmine administration could also rescue the increased anxiety phenotype of PLC-β4^−/− mice was investigated. To this end, rivastigmine (0.5 mg/kg, i.p.) was injected into PLC-β4^−/− mice and, 60 min after injection, the rivastigmine treated group was subjected to three anxiety behavioral assays.

[3] = tested on: PLC-β4^−/− mice; experiment: Light/dark transition test after rivastigmine; type: in vivo; settings: 0.5 mg/kg i.p., 60 min before test
Excerpt: The apparatus used for the light/dark transition test consisted of a cage (25×40×20 cm) divided into two compartments by a black partition containing a small opening that allows the mouse to move from one compartment to the other. One compartment, comprising two-thirds of the surface area, was made of white plastic and was brightly illuminated; the adjoining smaller compartment was black and dark. Mice were placed in the dark compartment and allowed to move freely between the two chambers for 5 min. The number of transitions between the two compartments, time spent in each chamber, and latency to the first transition were recorded (Welch, J. M. et al., Nature 448, 894-900, 2007).
as §1

[4] = tested on: PLC-β4^−/− mice; experiment: Open-field thigmotaxis test after rivastigmine; type: in vivo; settings: 0.5 mg/kg i.p., 60 min before test
Experimental: Open field thigmotaxis was assessed by placing mice in the center of an open field apparatus (40×40×40 cm) under dim lighting. During a 10 min observation period, locomotor activity, number of central crosses, and time spent in the central sector of the open field were recorded and analyzed by PC-based video behavior assay system (TSE, Bad Homburg, Germany). Thigmotaxis index was defined as a ratio of the number of entries into the central part of a testing arena to the locomotor activity. The thigmotaxis index was calculated for each mouse separately and used to calculate means and SEMs for a given experimental group (Treit, D. & Fundytus, M., Pharmacol. Biochem. Behav. 31, 959-962, 1988; Sienkiewicz-Jarosz, H. et al., J Neural Transm. 107, 1403-1412, 2000).
as §2, §3

[5] = tested on: hippocampus acetylcholine concentration; settings: 0.5 mg/kg of rivastigmine; microdialysis; cited from earlier work
[6] = tested on: PLC-β4^−/− mice; experiment: Hippocampal EEG theta rhythm in a novel environment after rivastigmine; type: in vivo; settings: 0.5 mg/kg i.p.
Experimental: For electrode implantation, the animals were anesthetized with pentobarbital ([…], i.p.) and held in a stereotaxic apparatus with bregma and lambda in the same horizontal plane. Hippocampal EEG recordings were performed using Teflon-coated tungsten electrodes (150 um) implanted in the hippocampal fissure with grounding over the cerebellum (from bregma, 2.0 mm anteroposterior, 1.2 mm mediolateral, and 1.8 mm dorsoventral). The position of the electrodes was verified by light microscopy in Nissl-stained sections according to published protocols. Field potential was amplified (×1,000), bandpass-filtered (bandpass-filtered) (0.1-100 Hz), digitized with 12-bit resolution continuously at 1 kHz sampling, and recorded on a personal computer.
The EEG EEG data were collected in 4 s segments and fast-Fourier transformed (FFT). The data were continuously monitored for movement artifacts, and the recording of each segment was manually verified by the experimenter, blinded to the genotype of the animals. […] To compare the EEG spectral characteristics of hippocampal electrical activities, EEG spectral power in 1 Hz bins was calculated using FFT (Hamming window) of each 4 s epoch. […]
Cholinergic and noncholinergic theta rhythms associated with different behaviors were recorded. […] Non-cholinergic type I theta rhythms were recorded from mice walking in an open chamber or running on a wheel. […]

CCN(C)C(=O)Oc1cccc([C@H](C)N(C)C)c1 [rivastigmine]
entries into the open arms [1]: indistinguishable from wild-type mice injected with saline | total entries into the closed and open arms ([1]; three groups): did not differ among the three groups | increased anxiety phenotype in each of the three anxiety tests [2]: showed a reversal of the increased anxiety phenotype | time in the light chamber [3]: indistinguishable from that of wild-type mice injected with saline | transitions between light and dark boxes [3]: indistinguishable from that of wild-type mice injected with saline | locomotion in the center of the open field [4]: wild-type levels of locomotion in the center of the open field | thigmotaxis index [4]: reduced thigmotaxis index to the same levels as those in wild-type mice injected with saline | time spent in the central sector of the open field [4]: levels comparable with those in wild-type mice injected with saline | total locomotion activities in the open field [4]: wild-type levels of total locomotion activities | increase of hippocampus acetylcholine concentration [5]: about 100% | amplitude of the cholinergic theta rhythms ([6]; alert immobility, novel environment): restored to a level similar to that of the wild-type mice injected with saline | amplitude of non-cholinergic type I theta rhythms ([6]; recorded during locomotion (walking) in new open field, vs saline-injected KO and WT mice): not significantly different among the three groups
